Test results: ChEMBL document CHEMBL3526128, “Covalent modification and time-dependent inhibition of human CYP2E1 by the meta-isomer of acetaminophen” (Drug Metab Dispos, 2012); call rule not given here

Columns and labels:
Type in all cases: ADME
[1] = biological target: T1, CYP2E1 (Homo sapiens, UniProt P05181); test: Inhibition of human CYP2E1 assessed as chlorzoxazone 6-hydroxylase activity at 2.5 mM after 72 hrs preincubation by HPLC analysis (RVb = 100%); design: scale not given: the % may be the effect or the level left; conditions: probe chlorzoxazone (6-hydroxylation), read-out: Activity
T1 sequence (P05181 whole entry): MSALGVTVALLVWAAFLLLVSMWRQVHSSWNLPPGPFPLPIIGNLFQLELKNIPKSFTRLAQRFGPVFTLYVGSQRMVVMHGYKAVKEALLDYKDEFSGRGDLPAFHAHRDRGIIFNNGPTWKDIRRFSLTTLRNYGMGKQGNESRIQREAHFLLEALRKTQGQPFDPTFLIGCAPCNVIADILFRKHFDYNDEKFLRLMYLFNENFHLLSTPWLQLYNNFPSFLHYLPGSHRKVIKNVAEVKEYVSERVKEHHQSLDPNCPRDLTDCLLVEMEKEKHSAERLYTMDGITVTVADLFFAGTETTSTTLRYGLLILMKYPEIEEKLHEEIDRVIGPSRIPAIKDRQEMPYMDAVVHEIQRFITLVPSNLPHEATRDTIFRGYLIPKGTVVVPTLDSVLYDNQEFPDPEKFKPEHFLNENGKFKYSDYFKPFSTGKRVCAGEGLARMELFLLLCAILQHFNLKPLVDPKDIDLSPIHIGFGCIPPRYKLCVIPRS

[2] = biological target: T2, Cytochrome P450 2E1 (Homo sapiens, UniProt P05181); test: (§1) Inhibition of human CYP2E1 assessed as chlorzoxazone 6-hydroxylase activity by HPLC analysis
T2 sequence (P05181 whole entry): as above

[3] = biological target: T1, CYP2E1; test: as §1; conditions: human, probe chlorzoxazone (6-hydroxylation)
[4] = biological target: T1, CYP2E1; test: Inhibition of human CYP2E1 assessed as chlorzoxazone 6-hydroxylase activity at 40 mM after 72 hrs preincubation by HPLC analysis in presence of 1 mM NADPH (RVb = 100%); design: scale not given: the % may be the effect or the level left; conditions: probe chlorzoxazone (6-hydroxylation), read-out: Activity
[5] = biological target: T1, CYP2E1; test: Inhibition of human CYP2E1 assessed as chlorzoxazone 6-hydroxylase activity at 20 mM after 72 hrs preincubation by HPLC analysis (RVb = 100%); design: scale not given: the % may be the effect or the level left; conditions: probe chlorzoxazone (6-hydroxylation), read-out: Activity
[6] = biological target: T1, CYP2E1; test: Inhibition of human CYP2E1 assessed as chlorzoxazone 6-hydroxylase activity at 20 mM after 72 hrs preincubation by HPLC analysis in presence of 1 mM NADPH and 5 mM glutathione (RVb = 100%); design: scale not given: the % may be the effect or the level left; conditions: probe chlorzoxazone (6-hydroxylation), read-out: Activity
[7] = biological target: T1, CYP2E1; test: Inhibition of human CYP2E1 assessed as chlorzoxazone 6-hydroxylase activity at 40 mM after 72 hrs preincubation by HPLC analysis (RVb = 100%); design: scale not given: the % may be the effect or the level left; conditions: probe chlorzoxazone (6-hydroxylation), read-out: Activity
[8] = biological target: T2, Cytochrome P450 2E1; test: Inhibition of human CYP2E1-mediated chlorzoxazone hydroxylase activity at 2.5 to 40 mM by LC-MS/MS analysis; conditions: recombinant enzyme, 40000 µM, TDE = time-dependent effect
[9] = biological target: T2, Cytochrome P450 2E1; test: Inhibition of human CYP2E1-mediated chlorzoxazone hydroxylase activity at 2.5 to 40 mM after 72 hrs by LC-MS/MS analysis in presence of 1 mM NADPH; conditions: recombinant enzyme, 40000 µM
[10] = biological target: T1, CYP2E1; test: Inhibition of human CYP2E1 assessed as chlorzoxazone 6-hydroxylase activity at 20 mM after 72 hrs preincubation by HPLC analysis in presence of 1 mM NADPH (RVb = 100%); design: scale not given: the % may be the effect or the level left; conditions: probe chlorzoxazone (6-hydroxylation), read-out: Activity

| Compound | activity at 72 h, 2500 µM [1] | Ki [2] | kinact [3] | activity at 72 h, 40000 µM [4] | activity at 72 h, 20000 µM [5] | activity at 72 h, 20000 µM [6] | activity at 72 h, 40000 µM [7] | inhibition (INH) [8] | inhibition (INH) [9] | activity at 72 h, 20000 µM [10] |
| --- | --- | --- | --- | --- | --- | --- | --- | --- | --- | --- |
| Nn1nnc2ccccc21 | < 1% | – | – | – | – | – | – | – | – | – |
| CC(=O)Nc1cccc(O)c1 [METACETAMOL] | 97.6% | 9.5 mM | 0.000133 s⁻¹ | 43.7% | 89.3% | 91.3% | 65.7% | tde | Active | 64.8% |
